Data: US20130165419A1, “COMBINATION ANTI-INFLAMMATORY OPHTHALMIC COMPOSITIONS” (INSITE VISION INCORPORATED, priority 2011, published 2013)

Assay: Release in the rabbit eye, measured by drug contained in the aqueous humor
Assay type: in vivo
Settings: released from the gel of the ophthalmically acceptable vehicle
Procedure: The viscous gels that result upon administration of the aqueous suspensions of this invention to the eye have residence times in the eye ranging from about 2 to about 12 hours, e.g., from about 3 to about 6 hours. The active ingredients contained in these ophthalmically acceptable vehicles are released from the gels at rates that depend on such factors as the active ingredient itself and its physical form, the extent of drug loading and the pH of the system, as well as on any drug delivery adjuvants, such as ion exchange resins compatible with the ocular surface, which can also be present.

release rates in the rabbit eye, as measured by fluorometholone contained in the aqueous humor: in excess of four hours
SMILES: CC(=O)[C@@]1(O)CC[C@H]2[C@@H]3C[C@H](C)C4=CC(=O)C=C[C@]4(C)[C@@]3(F)[C@@H](O)C[C@@]21C [fluorometholone]
